Measured values reported in US7635572B2, “Methods for conducting assays for enzyme activity on protein microarrays” (Life Technologies Corporation, priority 2004, dated 2009).

target: plurality of kinases (Table 5) (Homo sapiens, UniProt O75716); experiment: Further analysis of a plurality of inhibitors and a plurality of kinases on microarray (Example IX, Table 5); type: biochemical; settings: plate C3; inhibitor 100 uM;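 note: inhibition of each kinase by the inhibitors is given as a qualitative level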;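 for Inhibition level, DYRK1A: level 0 none or unclear Level 1 marginal Level 2 substantial inhibition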;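 for Inhibition level, PRKCI: level 0 none or unclear Level 1 marginal Level 2 substantial inhibition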;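 for Inhibition level, TLK2: level 0 none or unclear Level 1 marginal Level 2 substantial inhibition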
Sequence (O75716 whole entry): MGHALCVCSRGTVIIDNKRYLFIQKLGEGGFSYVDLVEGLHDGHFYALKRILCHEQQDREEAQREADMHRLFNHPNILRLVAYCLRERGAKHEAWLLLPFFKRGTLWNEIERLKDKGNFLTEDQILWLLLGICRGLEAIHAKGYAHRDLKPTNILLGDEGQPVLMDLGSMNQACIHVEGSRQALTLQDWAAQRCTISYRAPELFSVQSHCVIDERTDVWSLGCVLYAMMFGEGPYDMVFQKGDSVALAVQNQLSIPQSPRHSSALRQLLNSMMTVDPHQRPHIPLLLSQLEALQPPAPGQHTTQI

Row | SMILES | Inhibition level, STK16
1 | COc1cc2ncnc(Nc3cccc(Cl)c3)c2cc1OC [AG 1478] | 0
2 | O=S(=O)(NCCNC/C=C/c1ccc(Br)cc1)c1cccc2cnccc12 [H-89] | 2
3 | CC(C)(C)n1nc(-c2ccc(Cl)cc2)c2c(N)ncnc21 [PP2] | 2
4 | O=c1c(O)c(-c2ccc(O)c(O)c2)oc2cc(O)cc(O)c12 [Quercetin] | 0
5 | CC(=O)c1c(O)c(C)c(O)c(Cc2c(O)c3c(c(C(=O)/C=C/c4ccccc4)c2O)OC(C)(C)C=C3)c1O [Rottlerin (Mallotoxin)] | 0

target: plurality of kinases (Table 5) (Homo sapiens, UniProt P11362); experiment: as above; type: biochemical; settings: plate D12; inhibitor 100 uM
Sequence (P11362 22-822): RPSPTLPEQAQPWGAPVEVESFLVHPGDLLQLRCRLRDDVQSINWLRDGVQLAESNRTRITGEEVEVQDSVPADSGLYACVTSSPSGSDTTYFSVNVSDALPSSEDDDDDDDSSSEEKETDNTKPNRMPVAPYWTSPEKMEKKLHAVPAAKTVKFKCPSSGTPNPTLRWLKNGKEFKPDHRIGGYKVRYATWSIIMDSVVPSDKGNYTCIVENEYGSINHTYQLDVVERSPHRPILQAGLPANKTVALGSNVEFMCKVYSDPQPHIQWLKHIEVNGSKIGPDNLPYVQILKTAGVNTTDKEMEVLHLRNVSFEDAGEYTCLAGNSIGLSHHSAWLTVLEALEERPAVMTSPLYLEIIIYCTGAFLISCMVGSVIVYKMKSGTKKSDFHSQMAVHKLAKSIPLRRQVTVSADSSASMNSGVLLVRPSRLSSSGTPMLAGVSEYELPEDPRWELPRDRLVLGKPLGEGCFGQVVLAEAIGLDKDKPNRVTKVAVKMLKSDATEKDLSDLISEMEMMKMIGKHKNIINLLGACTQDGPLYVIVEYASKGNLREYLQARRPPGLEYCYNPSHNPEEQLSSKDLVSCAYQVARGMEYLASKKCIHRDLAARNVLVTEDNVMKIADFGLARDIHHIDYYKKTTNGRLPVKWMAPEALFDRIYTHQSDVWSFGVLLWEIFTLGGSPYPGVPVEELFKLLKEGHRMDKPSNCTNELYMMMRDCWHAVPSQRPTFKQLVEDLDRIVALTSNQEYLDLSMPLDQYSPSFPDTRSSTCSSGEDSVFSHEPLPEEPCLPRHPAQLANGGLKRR

Row | SMILES | Inhibition level, FGFR1
6 | COc1cc2ncnc(Nc3cccc(Cl)c3)c2cc1OC [AG 1478] | 1
7 | O=S(=O)(NCCNC/C=C/c1ccc(Br)cc1)c1cccc2cnccc12 [H-89] | 1
8 | CC(C)(C)n1nc(-c2ccc(Cl)cc2)c2c(N)ncnc21 [PP2] | 2
9 | CC(=O)c1c(O)c(C)c(O)c(Cc2c(O)c3c(c(C(=O)/C=C/c4ccccc4)c2O)OC(C)(C)C=C3)c1O [Rottlerin (Mallotoxin)] | 1

target: plurality of kinases (Table 5) (Homo sapiens, UniProt P16591); experiment: as above; type: biochemical; settings: plate H5; inhibitor 100 uM
Sequence (P16591 whole entry): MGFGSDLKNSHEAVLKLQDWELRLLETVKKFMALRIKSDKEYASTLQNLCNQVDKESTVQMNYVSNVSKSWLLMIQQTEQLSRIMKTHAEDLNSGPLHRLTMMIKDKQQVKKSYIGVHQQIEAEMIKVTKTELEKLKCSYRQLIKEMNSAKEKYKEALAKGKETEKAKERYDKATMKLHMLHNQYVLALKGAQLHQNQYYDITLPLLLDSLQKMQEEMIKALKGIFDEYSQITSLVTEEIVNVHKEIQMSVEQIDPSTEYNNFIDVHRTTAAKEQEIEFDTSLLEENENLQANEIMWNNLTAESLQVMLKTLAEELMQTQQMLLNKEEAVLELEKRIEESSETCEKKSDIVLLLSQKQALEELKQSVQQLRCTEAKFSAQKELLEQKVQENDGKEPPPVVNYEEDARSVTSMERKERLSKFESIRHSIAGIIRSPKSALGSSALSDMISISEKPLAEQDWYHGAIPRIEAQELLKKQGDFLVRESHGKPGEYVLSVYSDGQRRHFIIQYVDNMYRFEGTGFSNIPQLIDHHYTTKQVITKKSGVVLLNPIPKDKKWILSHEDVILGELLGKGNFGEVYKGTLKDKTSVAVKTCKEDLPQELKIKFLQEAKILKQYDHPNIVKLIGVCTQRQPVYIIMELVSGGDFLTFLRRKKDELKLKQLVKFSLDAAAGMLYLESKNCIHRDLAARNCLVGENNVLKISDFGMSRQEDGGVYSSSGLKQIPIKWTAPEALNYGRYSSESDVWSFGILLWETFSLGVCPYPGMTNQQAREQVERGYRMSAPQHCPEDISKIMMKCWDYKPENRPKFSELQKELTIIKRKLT

Row | SMILES | Inhibition level, FER
10 | COc1cc2ncnc(Nc3cccc(Cl)c3)c2cc1OC [AG 1478] | 1
11 | O=S(=O)(NCCNC/C=C/c1ccc(Br)cc1)c1cccc2cnccc12 [H-89] | 2
12 | CC(C)(C)n1nc(-c2ccc(Cl)cc2)c2c(N)ncnc21 [PP2] | 2
13 | O=c1c(O)c(-c2ccc(O)c(O)c2)oc2cc(O)cc(O)c12 [Quercetin] | 1
14 | CC(=O)c1c(O)c(C)c(O)c(Cc2c(O)c3c(c(C(=O)/C=C/c4ccccc4)c2O)OC(C)(C)C=C3)c1O [Rottlerin (Mallotoxin)] | 2

target: T1, plurality of kinases (Table 5) (Homo sapiens, UniProt P41743); experiment: as above; type: biochemical; settings: plate A2; inhibitor 100 uM
T1 sequence (P41743 1-596): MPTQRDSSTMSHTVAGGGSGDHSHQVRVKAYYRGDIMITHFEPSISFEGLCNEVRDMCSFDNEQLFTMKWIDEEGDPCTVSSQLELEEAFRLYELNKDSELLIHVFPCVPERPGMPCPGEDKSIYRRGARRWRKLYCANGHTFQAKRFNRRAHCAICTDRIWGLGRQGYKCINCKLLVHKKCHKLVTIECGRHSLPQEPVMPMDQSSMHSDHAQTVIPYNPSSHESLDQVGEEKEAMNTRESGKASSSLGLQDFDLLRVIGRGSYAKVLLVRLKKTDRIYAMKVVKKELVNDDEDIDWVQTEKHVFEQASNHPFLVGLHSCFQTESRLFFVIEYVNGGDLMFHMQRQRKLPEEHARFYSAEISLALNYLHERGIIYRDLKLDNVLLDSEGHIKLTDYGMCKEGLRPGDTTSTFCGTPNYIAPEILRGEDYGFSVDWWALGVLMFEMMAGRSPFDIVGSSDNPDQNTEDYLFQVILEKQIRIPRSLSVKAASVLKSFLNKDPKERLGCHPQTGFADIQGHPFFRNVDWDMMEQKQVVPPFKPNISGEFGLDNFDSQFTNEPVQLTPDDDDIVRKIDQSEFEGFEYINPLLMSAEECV

Row | SMILES | Inhibition level, PRKCI
15 | COc1cc2ncnc(Nc3cccc(Cl)c3)c2cc1OC [AG 1478] | 0
16 | O=S(=O)(NCCNC/C=C/c1ccc(Br)cc1)c1cccc2cnccc12 [H-89] | 2
17 | CC(C)(C)n1nc(-c2ccc(Cl)cc2)c2c(N)ncnc21 [PP2] | 1
18 | O=c1c(O)c(-c2ccc(O)c(O)c2)oc2cc(O)cc(O)c12 [Quercetin] | 0
19 | CC(=O)c1c(O)c(C)c(O)c(Cc2c(O)c3c(c(C(=O)/C=C/c4ccccc4)c2O)OC(C)(C)C=C3)c1O [Rottlerin (Mallotoxin)] | 2

target: T2, plurality of kinases (Table 5) (Homo sapiens, UniProt P54762); experiment: as above; type: biochemical; settings: plate B8; inhibitor 100 uM
T2 sequence (P54762 18-984): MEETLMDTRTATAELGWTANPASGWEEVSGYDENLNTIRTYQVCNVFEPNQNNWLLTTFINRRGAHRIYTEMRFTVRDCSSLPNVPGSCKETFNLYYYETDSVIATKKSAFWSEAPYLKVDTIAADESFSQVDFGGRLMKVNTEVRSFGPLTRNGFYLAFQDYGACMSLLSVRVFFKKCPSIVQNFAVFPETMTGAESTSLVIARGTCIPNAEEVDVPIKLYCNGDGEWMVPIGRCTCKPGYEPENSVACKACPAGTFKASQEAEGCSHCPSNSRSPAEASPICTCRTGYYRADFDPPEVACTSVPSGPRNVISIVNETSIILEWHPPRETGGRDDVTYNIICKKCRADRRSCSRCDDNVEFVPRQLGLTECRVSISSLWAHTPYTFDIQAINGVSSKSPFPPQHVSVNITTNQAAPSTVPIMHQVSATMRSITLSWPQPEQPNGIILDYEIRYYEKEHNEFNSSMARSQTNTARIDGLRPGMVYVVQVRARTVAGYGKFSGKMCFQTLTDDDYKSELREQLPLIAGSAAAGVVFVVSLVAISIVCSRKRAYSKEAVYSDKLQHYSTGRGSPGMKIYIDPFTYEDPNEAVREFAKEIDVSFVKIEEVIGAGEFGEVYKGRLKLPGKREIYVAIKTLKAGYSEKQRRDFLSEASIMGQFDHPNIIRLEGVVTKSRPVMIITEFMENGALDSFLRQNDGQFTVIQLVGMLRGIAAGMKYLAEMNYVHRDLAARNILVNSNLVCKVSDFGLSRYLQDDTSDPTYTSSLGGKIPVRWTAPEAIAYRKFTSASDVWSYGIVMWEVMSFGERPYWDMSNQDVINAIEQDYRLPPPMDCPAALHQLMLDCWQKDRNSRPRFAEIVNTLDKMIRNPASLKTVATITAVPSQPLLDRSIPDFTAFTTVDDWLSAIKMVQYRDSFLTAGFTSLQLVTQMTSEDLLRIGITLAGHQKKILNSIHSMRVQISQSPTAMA

Row | SMILES | Inhibition level, EPHB1
20 | COc1cc2ncnc(Nc3cccc(Cl)c3)c2cc1OC [AG 1478] | 2
21 | O=S(=O)(NCCNC/C=C/c1ccc(Br)cc1)c1cccc2cnccc12 [H-89] | 1
22 | CC(C)(C)n1nc(-c2ccc(Cl)cc2)c2c(N)ncnc21 [PP2] | 2
23 | O=c1c(O)c(-c2ccc(O)c(O)c2)oc2cc(O)cc(O)c12 [Quercetin] | 0
24 | CC(=O)c1c(O)c(C)c(O)c(Cc2c(O)c3c(c(C(=O)/C=C/c4ccccc4)c2O)OC(C)(C)C=C3)c1O [Rottlerin (Mallotoxin)] | 1

target: plurality of kinases (Table 5) (Homo sapiens, UniProt Q13627); experiment: as above; type: biochemical; settings: plate G6; inhibitor 100 uM

Row | SMILES | Inhibition level, DYRK1A
25 | COc1cc2ncnc(Nc3cccc(Cl)c3)c2cc1OC [AG 1478] | 0
26 | O=S(=O)(NCCNC/C=C/c1ccc(Br)cc1)c1cccc2cnccc12 [H-89] | 2
27 | CC(C)(C)n1nc(-c2ccc(Cl)cc2)c2c(N)ncnc21 [PP2] | 1
28 | CC(=O)c1c(O)c(C)c(O)c(Cc2c(O)c3c(c(C(=O)/C=C/c4ccccc4)c2O)OC(C)(C)C=C3)c1O [Rottlerin (Mallotoxin)] | 0

target: plurality of kinases (Table 5) (Homo sapiens, UniProt Q86UE8); experiment: as above; type: biochemical; settings: plate C8; inhibitor 100 uM
Sequence (Q86UE8 whole entry): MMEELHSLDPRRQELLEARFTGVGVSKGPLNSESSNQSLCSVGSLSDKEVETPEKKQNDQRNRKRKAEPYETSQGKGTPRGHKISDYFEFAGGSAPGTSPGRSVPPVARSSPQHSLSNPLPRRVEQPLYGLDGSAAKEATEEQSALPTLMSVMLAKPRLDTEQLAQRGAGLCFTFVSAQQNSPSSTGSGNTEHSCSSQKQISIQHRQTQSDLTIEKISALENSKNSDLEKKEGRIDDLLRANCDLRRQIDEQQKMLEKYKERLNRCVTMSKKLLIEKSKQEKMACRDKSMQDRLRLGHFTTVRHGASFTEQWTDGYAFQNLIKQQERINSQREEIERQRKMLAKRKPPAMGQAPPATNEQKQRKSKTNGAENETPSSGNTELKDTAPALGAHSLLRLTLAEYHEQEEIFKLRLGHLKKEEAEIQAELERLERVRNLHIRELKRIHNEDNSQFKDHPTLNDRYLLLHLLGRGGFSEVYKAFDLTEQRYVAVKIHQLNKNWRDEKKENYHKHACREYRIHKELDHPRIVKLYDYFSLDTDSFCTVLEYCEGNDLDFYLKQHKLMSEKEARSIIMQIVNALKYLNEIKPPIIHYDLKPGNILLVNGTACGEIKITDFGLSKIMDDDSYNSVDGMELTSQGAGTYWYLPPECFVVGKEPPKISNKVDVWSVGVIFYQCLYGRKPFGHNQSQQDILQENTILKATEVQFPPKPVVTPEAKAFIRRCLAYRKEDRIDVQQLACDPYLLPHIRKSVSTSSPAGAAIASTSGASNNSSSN

Row | SMILES | Inhibition level, TLK2
29 | COc1cc2ncnc(Nc3cccc(Cl)c3)c2cc1OC [AG 1478] | 2
30 | O=S(=O)(NCCNC/C=C/c1ccc(Br)cc1)c1cccc2cnccc12 [H-89] | 2
31 | CC(C)(C)n1nc(-c2ccc(Cl)cc2)c2c(N)ncnc21 [PP2] | 2
32 | O=c1c(O)c(-c2ccc(O)c(O)c2)oc2cc(O)cc(O)c12 [Quercetin] | 0
33 | CC(=O)c1c(O)c(C)c(O)c(Cc2c(O)c3c(c(C(=O)/C=C/c4ccccc4)c2O)OC(C)(C)C=C3)c1O [Rottlerin (Mallotoxin)] | 2

target: T3, plurality of kinases (Table 5) (Homo sapiens, UniProt Q9Y616); experiment: as above; type: biochemical; settings: plate C9; inhibitor 100 uM
T3 sequence (Q9Y616 1-596): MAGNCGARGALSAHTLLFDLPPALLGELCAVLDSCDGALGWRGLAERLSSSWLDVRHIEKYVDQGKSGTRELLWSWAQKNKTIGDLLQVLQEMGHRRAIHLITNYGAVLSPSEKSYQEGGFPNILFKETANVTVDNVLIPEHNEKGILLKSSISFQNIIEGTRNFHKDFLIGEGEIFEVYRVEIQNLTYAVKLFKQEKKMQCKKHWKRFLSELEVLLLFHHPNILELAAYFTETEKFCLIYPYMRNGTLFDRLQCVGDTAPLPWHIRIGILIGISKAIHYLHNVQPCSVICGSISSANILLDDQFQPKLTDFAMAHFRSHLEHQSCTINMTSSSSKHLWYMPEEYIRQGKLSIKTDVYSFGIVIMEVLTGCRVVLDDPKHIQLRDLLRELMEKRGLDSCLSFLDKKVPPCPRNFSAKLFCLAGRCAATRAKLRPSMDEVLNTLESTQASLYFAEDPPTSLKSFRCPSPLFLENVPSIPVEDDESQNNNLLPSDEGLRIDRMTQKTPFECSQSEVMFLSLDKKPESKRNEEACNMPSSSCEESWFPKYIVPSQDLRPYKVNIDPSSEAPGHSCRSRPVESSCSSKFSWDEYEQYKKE

Row | SMILES | Inhibition level, IRAK3
34 | COc1cc2ncnc(Nc3cccc(Cl)c3)c2cc1OC [AG 1478] | 2
35 | O=S(=O)(NCCNC/C=C/c1ccc(Br)cc1)c1cccc2cnccc12 [H-89] | 0
36 | CC(C)(C)n1nc(-c2ccc(Cl)cc2)c2c(N)ncnc21 [PP2] | 2
37 | O=c1c(O)c(-c2ccc(O)c(O)c2)oc2cc(O)cc(O)c12 [Quercetin] | 0
38 | CC(=O)c1c(O)c(C)c(O)c(Cc2c(O)c3c(c(C(=O)/C=C/c4ccccc4)c2O)OC(C)(C)C=C3)c1O [Rottlerin (Mallotoxin)] | 2

test system: 39 kinases (Table 4); experiment: not given; settings: known general specificities of the inhibitors, Table 3; cited from earlier work

Row | SMILES | General Specificity (known)
39 | O=S(=O)(NCCNC/C=C/c1ccc(Br)cc1)c1cccc2cnccc12 [H-89] | serine/threonine
40 | CC(C)(C)n1nc(-c2ccc(Cl)cc2)c2c(N)ncnc21 [PP2] | tyrosine
